Measurements taken from the supplement of paper PMC10307832.

Experiments:
Assay in all cases: relative viability (nuclei count vs DMSO), 5 days (fraction); higher = more cells survive
Imatinib + Alpelisib = compound: Cc1ccc(NC(=O)c2ccc(CN3CCN(C)CC3)cc2)cc1Nc1nccc(-c2cccnc2)n1 [Imatinib] + Cc1nc(NC(=O)N2CCC[C@H]2C(N)=O)sc1-c1ccnc(C(C)(C)C(F)(F)F)c1 [Alpelisib] (partner 2 µM)
In short: (§1)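 Relative viability equals treated-well nuclei counts divided by vehicle-well nuclei counts. Counts came from 4× images of lung cancer cell lines grown in 1536-well plates for 5 days after pin-tool dosing on the day after seeding. Dosing used one drug alone or a fixed anchor-drug dose plus five library-drug doses (not always all listed) in √10 steps, and values are medians of duplicate plates.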

Imatinib + Dasatinib = compound: Cc1ccc(NC(=O)c2ccc(CN3CCN(C)CC3)cc2)cc1Nc1nccc(-c2cccnc2)n1 [Imatinib] + Cc1nc(Nc2ncc(C(=O)Nc3c(C)cccc3Cl)s2)cc(N2CCN(CCO)CC2)n1 [Dasatinib] (partner 0.075 µM)
In short: as §1

Imatinib + Decitabine = compound: Cc1ccc(NC(=O)c2ccc(CN3CCN(C)CC3)cc2)cc1Nc1nccc(-c2cccnc2)n1 [Imatinib] + Nc1ncn([C@H]2C[C@H](O)[C@@H](CO)O2)c(=O)n1 [Decitabine] (partner 2 µM)
In short: as §1

Imatinib + Olaparib = compound: Cc1ccc(NC(=O)c2ccc(CN3CCN(C)CC3)cc2)cc1Nc1nccc(-c2cccnc2)n1 [Imatinib] + O=C(c1cc(Cc2n[nH]c(=O)c3ccccc23)ccc1F)N1CCN(C(=O)C2CC2)CC1 [Olaparib] (partner 8 µM)
In short: as §1

NCI-H1734
relative viability (Imatinib + Alpelisib; first compound 0.02 µM): 0.749
relative viability (Imatinib + Alpelisib; first compound 0.2 µM): 0.769
relative viability (Imatinib + Alpelisib; first compound 0.6325 µM): 0.699
relative viability (Imatinib + Dasatinib; first compound 0.02 µM): 0.478
relative viability (Imatinib + Dasatinib; first compound 0.06325 µM): 0.457
relative viability (Imatinib + Dasatinib; first compound 0.2 µM): 0.45
relative viability (Imatinib + Dasatinib; first compound 0.6325 µM): 0.442
relative viability (Imatinib + Dasatinib; first compound 2 µM): 0.427
relative viability (Imatinib + Decitabine; first compound 0.02 µM): 0.522
relative viability (Imatinib + Decitabine; first compound 0.2 µM): 0.573
relative viability (Imatinib + Decitabine; first compound 0.6325 µM): 0.486
relative viability (Imatinib + Decitabine; first compound 2 µM): 0.533
relative viability (Imatinib + Olaparib; first compound 0.02 µM): 0.621
relative viability (Imatinib + Olaparib; first compound 0.2 µM): 0.605
relative viability (Imatinib + Olaparib; first compound 0.6325 µM): 0.648
relative viability (Imatinib + Olaparib; first compound 2 µM): 0.639

NCI-H2347
relative viability (Imatinib + Alpelisib; first compound 0.02 µM): 1.15
relative viability (Imatinib + Alpelisib; first compound 0.06325 µM): 0.968
relative viability (Imatinib + Alpelisib; first compound 0.2 µM): 0.933
relative viability (Imatinib + Alpelisib; first compound 0.6325 µM): 1.11
relative viability (Imatinib + Alpelisib; first compound 2 µM): 1.09
relative viability (Imatinib + Dasatinib; first compound 0.02 µM): 0.317
relative viability (Imatinib + Dasatinib; first compound 0.06325 µM): 0.266
relative viability (Imatinib + Dasatinib; first compound 0.2 µM): 0.256
relative viability (Imatinib + Dasatinib; first compound 0.6325 µM): 0.283
relative viability (Imatinib + Dasatinib; first compound 2 µM): 0.251
relative viability (Imatinib + Decitabine; first compound 0.02 µM): 0.58
relative viability (Imatinib + Decitabine; first compound 0.2 µM): 0.653
relative viability (Imatinib + Decitabine; first compound 0.6325 µM): 0.615
relative viability (Imatinib + Decitabine; first compound 2 µM): 0.632
relative viability (Imatinib + Olaparib; first compound 0.02 µM): 0.551
relative viability (Imatinib + Olaparib; first compound 0.2 µM): 0.614
relative viability (Imatinib + Olaparib; first compound 0.6325 µM): 0.587
relative viability (Imatinib + Olaparib; first compound 2 µM): 0.479
